This note sets out measurements from patent US8883077B2, “Disinfecting, nonbleaching N-halamine for use with contact lens” (Auburn University, priority 2010, dated 2014).

In brackets after ≈: the same amount, converted by molar mass.

The subject of data set [1] is Staphylococcus aureus (ATCC 25923). Description: Disinfection efficacy in aqueous solution (colony counts after thiosulfate quench). The class given is cell-based. Conditions: 5 mg/L total chlorine (25 mg/L compound). Here is the method: The antimicrobial efficacy of compound 1 was evaluated against the pathogen Staphylococcus aureus (ATCC 25923) in aqueous solution at 22° C. and pH values of 4.5, 7.0, and 9.5. Solutions containing about 1×10^6 colony forming units (CFU) per mL final cell densities of bacteria were prepared and treated with compound 1 at a concentration of 5 mg/L total chlorine concentration (25 mg/L compound concentration). Aliquots were removed at predetermined contact times and quenched with sterile 0.02 N sodium thiosulfate to terminate disinfection action. Then serial dilutions were made into sterile saline solution, and 25 μL aliquots of each dilution were applied to the dried surface of a Petri dish containing tryptic soy agar. After 48 hours of incubation at 37° C., colony counts for each dilution were made. The results of three replicates were averaged. Control samples containing no disinfectant were handled in the same manner. Inactivation of the pathogen was considered to be at least 99.9999% (6 logs) when no viable colonies were detected in the thiosulfate-quenched aliquots.

Data set [2] can be described thus: Solubility in water at 22° C. The class given is physicochemical. The source says:
Both of the N-chloramine compounds mentioned above are able to easily be synthesized using methods known to those of skill in the art. Aqueous solutions of the un-halogenated amine precursor for either compound may be simply exposed to a dilute aqueous solution of household bleach (e.g., sodium hypochlorite) or sodium chlorite or by bubbling in chlorine gas to form the N-chloramine. For example, compound 1 has been prepared by Worley, et al., by using chlorine gas to react with an aqueous alkaline solution of the precursor amine (see Tsao, et al., “Novel N-Halamine Disinfectant Compounds”, Biotechnol. Prog. 1991, 7, 60 or Worley, et al., U.S. Pat. No. 5,057,612). It can also be purchased commercially from the HaloSource Corporation in Bothell, Wash. The precursor 2,2,5,5-tetramethyl-4-imidazolidinone is able to be prepared according to the method outlined in Tsao, et al., “Novel N-Halamine Disinfectant Compounds”, Biotechnol. Prog. 1991, 7, 60 or Worley, et al., U.S. Pat. No. 5,057,612. Compound 2 is able to be prepared by reaction of commercial (Aldrich Chemical Company, Milwaukee, Wis.) 2,2,6,6-tetramethyl-4-piperidinol with dilute household bleach. […] Pure compounds 1 and 2 contain 20.1 and 18.5 percent by weight oxidative chlorine, respectively. Their solubilities in water at 22° C. are 1930 and 6815 mg/L, respectively. […]

Data set [3] in a line: Stability in aqueous solution and in Unisol 4 contact lens soak (iodometric/thiosulfate titration). The class given is physicochemical. Here is the method: The stabilities of compound 1 in aqueous solution and in a contact lens soak formulation (Unisol 4 manufactured by Alcon Laboratories, Inc.) were determined at 22° C. by using the standard iodometric/thiosulfate titration procedure. In water buffered to pH 7.0 at 22° C., the compound at a starting concentration of 10 mg/L total chlorine lost less than 5% of its oxidative chlorine over a storage period of 50 days. In about 4 mL of Unisol 4 at a starting concentration of about 20 mg/L total chlorine in the presence of an ACUVUE 2 contact lens (manufactured by Johnson & Johnson Vision Care, Inc.) in a lens holder manufactured by Alcon Laboratories, Inc., the loss of oxidative chlorine over 60 days was about 21%. In contrast, in an analogous experiment with compound 2 in the Unisol 4, the loss was about 54% over just 30 days.

On to `CC1(C)NC(=O)C(C)(C)N1Cl` [compound 1, 1-chloro-2,2,5,5-tetramethyl-4-imidazolidinone], for which the “contact time required for 99.9999% inactivation” value in data set [1] (pH 4.5, 22° C.) worked out at 60 min; in data set [1] (pH 7.0, 22° C.), 588 min; in data set [1] (pH 9.5, 22° C.), 454 min. In addition, in data set [1] (pH 4.5, 22° C., about 1×10^6 CFU/mL), the “inactivation after 10 minutes contact” value is reported as 96%. For the same compound, the “inactivation after 10 minutes contact time” value is on record as 4.4% in data set [1] (pH 7.0, 22° C., about 1×10^6 CFU/mL) and 50% in data set [1] (pH 9.5, 22° C., about 1×10^6 CFU/mL). This compound also registered a solubility in data set [2] of 1930 µg/mL (≈ 10.9 mM). In addition, the “loss of oxidative chlorine” value is “about 21%” in data set [3] (about 4 mL Unisol 4 with ACUVUE 2 contact lens, starting about 20 mg/L total chlorine, 60 days) and “less than 5%” in data set [3] (water buffered to pH 7.0, 22° C., starting 10 mg/L total chlorine, storage 50 days).
Compound `CC1(C)CC(O)CC(C)(C)N1Cl` [compound 2, 1-chloro-2,2,6,6-tetramethyl-4-piperidinol, reference compound] yielded a solubility in data set [2] of 6820 µg/mL (≈ 35.5 mM). The “loss of oxidative chlorine” value in data set [3] (Unisol 4 with ACUVUE 2 contact lens, analogous experiment, 30 days) is on record as “about 54%”.

What is called solubility is the dissolved amount per volume that the medium holds. Higher therefore signals a readily soluble substance.
